Experimental findings from BindingDB's records for patent US20240043403 (Astellas Pharma, 2024) are described below.

This assay concerns the target Diacylglycerol kinase zeta (Homo sapiens, UniProt Q13574). Nature of the assay: Evaluation of DGKdelta Inhibitory Effect. As to the method:
To a 384-well plate (Greiner Bio-One Co., Ltd.), 3 μL of a DGK ξ enzyme dissolved in an assay buffer (40 mM Tris-HCl pH 7.5, 10 mM MgCl2, 1 mM dithiothreitol (DTT) and 0.1 mg/mL bovine serum albumin (BSA)) (90 ng/mL) was added, and 3 μL of the test compound diluted with the same assay buffer was added so that an intended final concentration was obtained. The mixture was left standing at room temperature for 15 minutes, 3 μL of a substrate (150 μM 1-oleoyl-2-acetyl-sn-glycerol (Sigma-Aldrich Co. LLC), 480 μM phosphatidylserine (Avanti, Inc.) and 150 μM UltraPure-ATP (attached to ADP-Glo)) was then added, and the mixture was left standing at room temperature for 30 minutes to react. Thereafter, 3 μL of an ADP-Glo Reagent was added, and the mixture was left standing at room temperature for 40 minutes to stop the enzyme reaction. Further, 6 μL of a Kinase-Detection Reagent was added, the mixture was left standing at room temperature for 30 minutes, and the luminescence was then measured using ARVO X3 (PerkinElmer, Inc.). The half maximal inhibitory concentration (IC50) was calculated by Sigmoid-Emax model non-linear regression analysis, where the signal value in solvent treatment was set to 0% inhibition and the signal value without addition of the DGK ξ enzyme was set to 100% inhibition.

Diacylglycerol kinase zeta, sequence (Q13574 whole entry): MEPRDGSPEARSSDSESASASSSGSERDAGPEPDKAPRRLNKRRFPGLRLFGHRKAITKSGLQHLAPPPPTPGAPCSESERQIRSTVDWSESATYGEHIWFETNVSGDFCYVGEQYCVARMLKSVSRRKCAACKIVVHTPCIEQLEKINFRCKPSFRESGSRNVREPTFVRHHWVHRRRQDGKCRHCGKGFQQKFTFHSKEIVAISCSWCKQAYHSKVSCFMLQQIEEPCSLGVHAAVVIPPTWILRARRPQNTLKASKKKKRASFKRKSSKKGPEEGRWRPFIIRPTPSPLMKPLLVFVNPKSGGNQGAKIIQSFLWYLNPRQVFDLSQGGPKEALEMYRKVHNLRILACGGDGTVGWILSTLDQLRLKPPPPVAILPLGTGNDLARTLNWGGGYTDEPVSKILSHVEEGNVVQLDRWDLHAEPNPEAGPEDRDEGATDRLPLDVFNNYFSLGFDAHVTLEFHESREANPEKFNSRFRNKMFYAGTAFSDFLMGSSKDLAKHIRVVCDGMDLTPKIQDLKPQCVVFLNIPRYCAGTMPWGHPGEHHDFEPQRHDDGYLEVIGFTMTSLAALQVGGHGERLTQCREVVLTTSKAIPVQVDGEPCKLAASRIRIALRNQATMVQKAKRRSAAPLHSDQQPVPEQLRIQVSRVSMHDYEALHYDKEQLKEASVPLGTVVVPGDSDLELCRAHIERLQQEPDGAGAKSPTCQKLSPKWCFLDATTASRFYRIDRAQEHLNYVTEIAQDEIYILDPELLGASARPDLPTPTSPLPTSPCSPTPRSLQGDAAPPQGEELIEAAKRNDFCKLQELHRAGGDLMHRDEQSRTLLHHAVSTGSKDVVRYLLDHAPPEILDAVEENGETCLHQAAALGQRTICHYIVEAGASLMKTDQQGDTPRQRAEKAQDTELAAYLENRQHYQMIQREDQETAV

One may read the IC50 as the point on the concentration scale where inhibition reaches its midpoint. Low values mean inhibition by little substance, high ones a need for much substance. For the compound `NC[C@@H]1CCCN(c2c(NC(=O)c3ccn(CC(F)F)n3)ccc(Oc3ccccc3F)c2C(F)(F)F)C1` [US20240043403, Example 1], the IC50 came to 16 nM.
